Some test systems named below: A498; CAKI-1; CCRF-CEM; EKVX; HCT-116; HL-60; KM12; NCI-H226; NCI-H23; OVCAR-8; RPMI-8226; SK-MEL-5; SNB-19; SNB-75; SW-620; UACC-62; OVCAR-3.
Experiment in all cases: inhibition of tumour cell growth, NCI panel, 48 h

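Where inhibition never reached the appropriate level, the endpoint shown equals the highest concentration tested. Otherwise, values were interpolated linearly from a five-concentration, 48-hour dose response in 96-well plates. GI50: concentration for 50% inhibition of growth.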 Activity calls are given as the source filed them. No stated cut-off is given here; in the data, active = GI50 up to about 1.1 µM and inactive = higher. Some results are limits rather than exact numbers.

Turning to `C[N+](C)(C)CC(=O)N/N=C(/C=C/c1ccccc1)CC1OC(=O)c2ccccc21` (centres undefined), the GI50 in the experiment with A498, in the experiment on CAKI-1, in the experiment on CCRF-CEM, in the experiment with EKVX, in the experiment with HCT-116 and in the experiment with HL-60 was > 100 µM (inactive) in each case. In addition, the GI50 in the experiment on KM12 is > 100 µM (inactive); with NCI-H226, > 100 µM (inactive); with NCI-H23 it was > 10 µM (inactive); with OVCAR-8 it was > 100 µM (inactive); in the experiment on RPMI-8226 it was > 100 µM (inactive); with SK-MEL-5, > 100 µM (inactive). The GI50 with SNB-19, with SNB-75, with SW-620 and with UACC-62 was > 100 µM (inactive) throughout.
For the compound `NC1=NCC(c2ccccn2)C1c1ccc(F)cc1` (centres undefined), the GI50 in the experiment with A498, in the experiment on CAKI-1, with CCRF-CEM, with EKVX, with HCT-116 and in the experiment with KM12 was > 100 µM (inactive) each time. The GI50 in the experiment with NCI-H226, in the experiment on NCI-H23, with OVCAR-3, in the experiment with OVCAR-8, in the experiment on RPMI-8226 and with SK-MEL-5 was > 100 µM (inactive) in each case. Also, the GI50 with SNB-19, in the experiment on SNB-75, in the experiment with SW-620 and in the experiment with UACC-62 was > 100 µM (inactive) in each case.
For the compound `N#CC1=C(c2ccccc2)OC2(N)OC(c3ccccc3)=C(C#N)C12C#N` (centres undefined), the GI50 in the experiment with A498 is > 100 µM (inactive); in the experiment with CAKI-1, 84.1 µM (inactive); with CCRF-CEM, 56.1 µM (inactive); in the experiment with EKVX it was > 100 µM (inactive); with KM12 it was > 100 µM (inactive); with NCI-H23 it was > 100 µM (inactive). Besides, the GI50 with OVCAR-3 was 36.9 µM (inactive); in the experiment on OVCAR-8, 74.8 µM (inactive); in the experiment on RPMI-8226, 39.4 µM (inactive); in the experiment on SK-MEL-5, > 100 µM (inactive); in the experiment with SNB-19, > 100 µM (inactive); in the experiment on SNB-75 it was 43.6 µM (inactive). Also, the GI50 in the experiment with SW-620 and in the experiment on UACC-62 was > 100 µM (inactive) in each case.
With `C[Si](C)(c1ccccc1)C1CC(=O)CC(=O)C1`, the GI50 in the experiment on CAKI-1 is > 100 µM (inactive); with CCRF-CEM, 38.4 µM (inactive); in the experiment with EKVX, > 100 µM (inactive); in the experiment with HCT-116 it was > 100 µM (inactive); in the experiment on HL-60, 21.3 µM (inactive); in the experiment with KM12, > 100 µM (inactive). The GI50 in the experiment on NCI-H226, in the experiment on NCI-H23, in the experiment on OVCAR-3, in the experiment on OVCAR-8, with RPMI-8226 and in the experiment with SK-MEL-5 was > 100 µM (inactive) in each case. Also, the GI50 in the experiment on SNB-19, in the experiment on SNB-75, in the experiment on SW-620 and in the experiment with UACC-62 was > 100 µM (inactive) each time.
Consider `O=[N+]([O-])c1cccc(S(=O)(=O)N/N=C/c2cc(I)cc([N+](=O)[O-])c2O)c1`, for which the GI50 with A498 is > 100 µM (inactive); in the experiment with CAKI-1, 20.3 µM (inactive); in the experiment on CCRF-CEM, 20.1 µM (inactive); in the experiment on EKVX it was 29 µM (inactive); with HCT-116 it was 27.9 µM (inactive); in the experiment with HL-60, 21.3 µM (inactive). Moreover, the GI50 in the experiment with KM12 is 32.4 µM (inactive); with NCI-H23, 22 µM (inactive); in the experiment with OVCAR-3, 21.4 µM (inactive); in the experiment on OVCAR-8, 25.6 µM (inactive); in the experiment on RPMI-8226, 37 µM (inactive); in the experiment with SK-MEL-5, 22.7 µM (inactive). The GI50 with SNB-19 is 23.9 µM (inactive); in the experiment with SNB-75 it was 22.4 µM (inactive); in the experiment on SW-620 it was 22 µM (inactive); in the experiment on UACC-62, 22 µM (inactive).
In the case of `CCOc1ccc2c(c1)[n+]([O-])c(C(N)=O)c(N)[n+]2[O-]`, the GI50 is > 100 µM (inactive) in the experiment on A498; > 100 µM (inactive) in the experiment with CAKI-1; 94 µM (inactive) in the experiment on CCRF-CEM; > 100 µM (inactive) in the experiment with EKVX; > 100 µM (inactive) in the experiment on HCT-116; > 100 µM (inactive) with HL-60. Further, the GI50 in the experiment on KM12, in the experiment on NCI-H226, in the experiment with NCI-H23, in the experiment on OVCAR-3, in the experiment with OVCAR-8 and in the experiment with SK-MEL-5 was > 100 µM (inactive) in each case. The GI50 in the experiment on SNB-19, in the experiment with SNB-75 and in the experiment with SW-620 was > 100 µM (inactive) in each case.
In the case of `CCOC(=O)[C@H]1Nc2ccc(O)cc2C2c3ccccc3CC21` (some centres undefined), the GI50 with A498 is > 100 µM (inactive); in the experiment with CAKI-1, > 100 µM (inactive); with EKVX, 42.3 µM (inactive); with HCT-116 it was 68.1 µM (inactive); with KM12, > 100 µM (inactive); in the experiment on NCI-H226 it was > 100 µM (inactive). Besides, the GI50 in the experiment with NCI-H23 was 53.7 µM (inactive); in the experiment with OVCAR-3 it was 35.2 µM (inactive); in the experiment with OVCAR-8, > 100 µM (inactive); in the experiment with RPMI-8226 it was 43.2 µM (inactive); in the experiment on SK-MEL-5, 33.3 µM (inactive); in the experiment on SNB-19, > 100 µM (inactive). For the same compound, the GI50 in the experiment with SNB-75 was 36.9 µM (inactive); in the experiment on SW-620 it was > 100 µM (inactive); with UACC-62, 51.3 µM (inactive).
As for `C[n+]1c2ccccc2c(CNCC(=O)O)c2ccccc21`, the GI50 in the experiment with A498 is 2.61 µM (inactive); with CAKI-1, 0.406 µM (active); in the experiment with EKVX, 2.56 µM (inactive); in the experiment on HCT-116 it was 0.39 µM (active); in the experiment on HL-60, 0.187 µM (active); with KM12, 0.452 µM (active). Besides, the GI50 was 3.3 µM (inactive) in the experiment on NCI-H226; 6.95 µM (inactive) with NCI-H23; 1.87 µM (inactive) with OVCAR-3; 2.75 µM (inactive) in the experiment with OVCAR-8; 0.29 µM (active) in the experiment with RPMI-8226; 3.98 µM (inactive) with SK-MEL-5. Also, the GI50 is 10.2 µM (inactive) with SNB-19, 8.41 µM (inactive) in the experiment with SNB-75, 0.571 µM (active) with SW-620 and 1.21 µM (inactive) with UACC-62.
For the compound `Nc1nc2c(ncn2CCCC(c2ccccc2)P(=O)(O)O)c(=O)[nH]1` (centres undefined), the GI50 with CAKI-1, with CCRF-CEM, in the experiment on EKVX, in the experiment on HCT-116, in the experiment with HL-60 and with KM12 was > 100 µM (inactive) throughout. The GI50 in the experiment on NCI-H23, with OVCAR-3, in the experiment on OVCAR-8, with RPMI-8226, with SK-MEL-5 and with SNB-19 was > 100 µM (inactive) in each case. Further, the GI50 in the experiment on SNB-75, in the experiment with SW-620 and with UACC-62 was > 100 µM (inactive) each time.
As for `O=c1[nH]cc(F)c(=O)n1C1OC(CO)C(O)C1O` (centres undefined), the GI50 in the experiment with CAKI-1, in the experiment with CCRF-CEM, with EKVX, in the experiment on HL-60, in the experiment on KM12 and in the experiment with NCI-H226 was > 100 µM (inactive) each time. For the same compound, the GI50 with NCI-H23, in the experiment on OVCAR-3, in the experiment on OVCAR-8, in the experiment on RPMI-8226, in the experiment with SK-MEL-5 and in the experiment with SNB-19 was > 100 µM (inactive) in each case. Further, the GI50 in the experiment with SNB-75 and in the experiment on SW-620 was > 100 µM (inactive) in each case.
On to `Cc1ccc(S(=O)(=O)NC2(C=O)CCC(C(C)(C)C)CC2)cc1` (centres undefined), for which the GI50 in the experiment on A498 was 89.9 µM (inactive); in the experiment on CAKI-1, > 100 µM (inactive); in the experiment with EKVX it was 38.1 µM (inactive); in the experiment with HCT-116 it was 23.8 µM (inactive); in the experiment on HL-60, 20.1 µM (inactive); with KM12, 27 µM (inactive). In addition, the GI50 was > 100 µM (inactive) with NCI-H226; 31.2 µM (inactive) with NCI-H23; 24.5 µM (inactive) in the experiment on OVCAR-3; 36.5 µM (inactive) in the experiment on OVCAR-8; 19.1 µM (inactive) in the experiment on RPMI-8226; 21.9 µM (inactive) in the experiment with SK-MEL-5. The GI50 with SNB-19 was 68.7 µM (inactive); in the experiment with SNB-75, 45.2 µM (inactive); in the experiment with SW-620 it was 70.3 µM (inactive); in the experiment on UACC-62, 39 µM (inactive).
For `Cc1ccc(S(=O)(=O)C2CC2(Cl)Cl)cc1` (centres undefined), the GI50 in the experiment on CAKI-1 was 26.6 µM (inactive); in the experiment on CCRF-CEM, 11.1 µM (inactive); with EKVX, > 100 µM (inactive); with HCT-116, 20.4 µM (inactive); in the experiment with KM12 it was 66.2 µM (inactive); with NCI-H226, > 100 µM (inactive). The GI50 is 24.7 µM (inactive) in the experiment on NCI-H23; 19.9 µM (inactive) in the experiment on OVCAR-3; 20.9 µM (inactive) with OVCAR-8; > 100 µM (inactive) with SNB-19; 55.7 µM (inactive) in the experiment with SNB-75; 22.3 µM (inactive) with SW-620. In addition, the GI50 in the experiment with UACC-62 is 27.4 µM (inactive).
For `COc1nc2c(c(O)c(C)c(=O)n2OC2OCC(OC(C)=O)C(OC(C)=O)C2OC(C)=O)c(=O)n1C` (centres undefined), the GI50 in the experiment on CCRF-CEM, in the experiment on EKVX, in the experiment with HCT-116, with KM12, with NCI-H226 and in the experiment with NCI-H23 was > 100 µM (inactive) throughout. Also, the GI50 with OVCAR-8, in the experiment with SK-MEL-5, in the experiment with SNB-19, in the experiment on SNB-75, in the experiment with SW-620 and in the experiment on UACC-62 was > 100 µM (inactive) throughout.

The record behind these values is ChEMBL document CHEMBL1201862, “PubChem BioAssay data set” (2004).
